Measurements published in patent publication US12570612B2, “Substituted nitrogen heterocyclic compound and anesthetic effect thereof” (priority 2019, dated 2026).
“And” between values parts separate entries of the source, which are not always exact repeats. Identical values can stand only once. “Also recorded” adds a separate entry of the source. Like-named read-outs stand apart in the source and are kept apart here.

How the values were obtained:
Sprague-Dawley rats [1] = conditions: for Recovery time after stopping infusion: LORR maintained for 1 hour; for Recovery time after stopping infusion / Onset time: 2 times the MIR; for Onset time / Types and incidence of adverse reactions: continuous infusion; for Types and incidence of adverse reactions: (animals affected/animals)
Method: Adult male Sprague-Dawley rats with body weight ranging from 250 to 300 gm were selected for continuous infusion test. […] Time to recovery of righting reflex from stopping infusion, and time to fully awake from stopping infusion were recorded.

Sprague-Dawley rats [2] = assay: animal or person; conditions: for Approximate therapeutic index / Minimal lethal dose: rats
Method: (§1) Adult male Sprague-Dawley rats (250-300 g) were selected for the experiment. […] The anesthesia effects of the compounds were assessed in rats using a LORR assay and a period >30 s was considered as an indicator of general anesthesia.

H295R cell line [3] = assay: Adrenocortical function in vitro test: secretion of cortisol and corticosterone, Group A compounds; type: cell-based; conditions: H295 cells; for EC50: 0.1-10000 nM, HPLC-MS/MS
Sprague-Dawley rats [4] = assay: Pharmacological characteristics at equivalent doses (2ED50), Group A compounds; type: in vivo; set-up: Sedation duration: unit not given here; conditions: 2ED50, tail vein; for Types and incidence of adverse reactions: (animals affected/animals)
Sprague-Dawley rats [5] = assay: Continuous infusion at 2 times the MIR for 1 hour, Group B compounds; type: in vivo; conditions: for Recovery time after stopping infusion: after 1 hour continuous infusion at 2 times the MIR; for Recovery time after stopping infusion / Onset time: rats; for Onset time: continuous tail vein infusion at 2 times the MIR, emulsion
H295R cell line [6] = assay: Adrenocortical function in vitro test: secretion of cortisol and corticosterone, Group B compounds; type: cell-based; conditions: H295R cells; for EC50: 0.1-10000 nM, HPLC-MS/MS
Sprague-Dawley rats [7] = assay: animal or person; conditions: for ED50: LORR in rats, tail vein, brackets = 95% confidence limit; for Approximate therapeutic index / Minimal lethal dose: rats
Method: as §1

[8] = Homo sapiens, read-out: EC50 (Corticosterone)
[9] = Homo sapiens, read-out: EC50 (Cortisol)
[10] = continuous infusion 2 x MIR 1 hour, rats affected/rats
[11] = read-out: EC50 (Corticosterone)
[12] = Homo sapiens, NCI-H295R, read-out: EC50 (Corticosterone)
[13] = Homo sapiens, NCI-H295R, read-out: EC50 (Cortisol)

| SMILES | Recovery time after stopping infusion (Sprague-Dawley rats [1]) [min] | Onset time (Sprague-Dawley rats [1]) [min] | Types and incidence of adverse reactions (Sprague-Dawley rats [1]) | Approximate therapeutic index (Sprague-Dawley rats [2]) | Minimal lethal dose (Sprague-Dawley rats [2]) [mg/kg] | Corticosterone as an indicator to determine the presence of inhibition (H295R cell line [3]) | Cortisol as an indicator to determine the presence of inhibition (H295R cell line [3]) | Onset time (Sprague-Dawley rats [4]) [min] | Righting reflex duration (Sprague-Dawley rats [4]) [min] | Types and incidence of adverse reactions (Sprague-Dawley rats [4]) | Recovery time after stopping infusion (Sprague-Dawley rats [5]) [min] | Types and incidence of adverse reactions: Tremor (Sprague-Dawley rats [5]; [10]) | Onset time (Sprague-Dawley rats [5]) [min] | Corticosterone as an indicator to determine the presence of inhibition (H295R cell line [6]) | Cortisol as an indicator to determine the presence of inhibition (H295R cell line [6]) | Approximate therapeutic index (Sprague-Dawley rats [7]) | Minimal lethal dose (Sprague-Dawley rats [7]) [mg/kg] | other results |
| --- | --- | --- | --- | --- | --- | --- | --- | --- | --- | --- | --- | --- | --- | --- | --- | --- | --- | --- |
| C=C=CC1(OC(=O)c2ccnn2[C@H](C)c2ccccc2)COC1 [Compound A24] | 8 to 12 | 4 to 5 | Tremor(2/6), Tongue; also recorded: stretching(4/6) | >31 | >6 | 0 | 0 | 0.47 ± 0.09 | 1.47 ± 0.63 | Red and urine(8/8), Convulsions(5/ and 8), Hindlimb rigidity (2/8) | – | – | – | – | – | – | – | ED50 (Sprague-Dawley rats [2]; Rattus norvegicus): 0.04 to 0.5 mg/kg; EC50 (H295R cell line [3]; [8]): > 1000 nM; EC50 (H295R cell line [3]; [9]): > 1000 nM |
| C[C@H](c1ccccc1)n1nccc1C(=O)OC1(C)COC1 [Compound A30] | 8 to 14 | 3 to 4 | Tremor(2/6) | >6 | >7 | 0 | 0 | 0.3 ± 0.22 | 2.6 ± 0.83 | Red and urine(8/8), Euphoria(3/8), and Tremor(1/8) | – | – | – | – | – | – | – | ED50 (Sprague-Dawley rats [2]; Rattus norvegicus): 1 to 2 mg/kg; EC50 (H295R cell line [3]; [8]): > 1000 nM; EC50 (H295R cell line [3]; [9]): > 1000 nM |
| C[C@H](c1ccccc1)n1nnc(Cl)c1C(=O)SC1CCC1 [Compound B80] | – | – | – | – | – | – | – | – | – | – | 12 to 16 | Tremor(5/6) | 3 to 5 | 0 | 0 | >3 | >16 | EC50 (H295R cell line [6]; [11]): > 1000 nM; EC50 (H295R cell line [6]; read-out: EC50 (Cortisol)): > 1000 nM; ED50 (Sprague-Dawley rats [7]): D (D indicates that the measured ED50 is in the range of 2.00-10.00 mg/kg (excluding 2.00 mg/kg, including 10.00 mg/kg)) |
| COC(=O)C1=C(OC(=O)c2ccnn2[C@H](C)c2ccccc2)CCC1 [Compound A20] | 12 to 15 | 5 to 6 | Tremor(5/6) | >10 | >12 | 0 | 0 | 0.67 ± 0.14 | 1.15 ± 0.66 | Red urine(8/8), Hindlimb; also recorded: rigidity(3/8), General; also recorded: Tremor(1/8) | – | – | – | – | – | – | – | ED50 (Sprague-Dawley rats [2]; LORR in rats, tail vein, brackets = 95% confidence limit): C (C indicates that the measured ED50 is in the range of 1.00-2.00 mg/kg (excluding 1.00 mg/kg, including 2.00 mg/kg)); EC50 (H295R cell line [3]; [11]): > 100 nM; EC50 (H295R cell line [3]; read-out: EC50 (Cortisol)): > 100 nM; Sedation duration (Sprague-Dawley rats [4]): 7.05 ± 3.95 |
| C[C@H](c1ccccc1)n1nncc1C(=O)OC1(C)COC1 [Compound B14] | – | – | – | – | – | – | – | – | – | – | – | Tremor(3/6) | 5 to 6 | 0 | 0 | >5 | >7 | EC50 (H295R cell line [6]; [12]): > 1000 nM; EC50 (H295R cell line [6]; [13]): > 1000 nM; ED50 (Sprague-Dawley rats [7]; Rattus norvegicus): 1 to 2 mg/kg |
| CC(=O)C1=C(OC(=O)c2c(F)nnn2[C@H](C)c2ccccc2)CCCC1 [Compound B47] | – | – | – | – | – | – | – | – | – | – | 7 to 15 | Tremor(4/6), | 3 to 4 | 0 | 0 | >9 | >13 | Types and incidence of adverse reactions: Forelimbrigidity (Sprague-Dawley rats [5]; [10]): Forelimbrigidity(1/6); EC50 (H295R cell line [6]; [11]): > 100 nM; EC50 (H295R cell line [6]; read-out: EC50 (Cortisol)): > 100 nM; ED50 (Sprague-Dawley rats [7]): C (C indicates that the measured ED50 is in the range of 1.00-2.00 mg/kg (excluding 1.00 mg/kg, including 2.00 mg/kg)) |
| C=C=CC1(OC(=O)c2cnnn2[C@H](C)c2ccccc2)COC1 [Compound B3] | – | – | – | – | – | – | – | – | – | – | 15 to 16 | Tremor(4/6), Tongue | 3 to 4 | 0 | 0 | >32 | >6 | Types and incidence of adverse reactions: Tongue stretching (Sprague-Dawley rats [5]; [10]): stretching(3/6); EC50 (H295R cell line [6]; [12]): > 1000 nM; EC50 (H295R cell line [6]; [13]): > 1000 nM; ED50 (Sprague-Dawley rats [7]; Rattus norvegicus): 0.04 to 0.5 mg/kg |
